Measured values as given in the METLIN SMRT retention time set (Domingo-Almenara et al. 2019).

Test: gradient 5% acetonitrile 3 min, to 50% in 2 min, to 85% in 15 min, held 3 min, 100 µL/min
Conditions: column: Zorbax Extend-C18 2.1 x 50 mm; eluents: water / acetonitrile, 0.1% formic acid
Summary of the method: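 The system's dead and dwell volumes were 40 μL and 900 μL, with a Zorbax Extend-C18 column (2.1 × 50 mm, 1.8 μm) run at 100 μL/min in water and acetonitrile containing 0.1% formic acid each. Pure standards were analyzed in mixtures of ~100 molecules by HPLC–quadrupole time-of-flight mass spectrometry in positive and negative ionization mode. Retention time was assigned from computationally picked, manually inspected adduct peaks.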

SMILES | RP-LC retention time [s]
CCOC(=O)c1ccc(Nc2c(-c3cccc(Cl)c3)nc3cnccn23)cc1 | 978
COc1ccc(Cn2nnc3cc(C(=O)Nc4cc(C)on4)ccc32)cc1 | 817
Cc1nc2cc(-c3noc(C(C)NC(=O)c4ccccc4)n3)ccc2n(C2CCCC2)c1=O (stereo not given) | 999
COc1ccccc1CNC(=O)Cn1nc2c(N3CCCCCC3)nccn2c1=O | 694
Fc1cccc(-c2nn3c(CSc4ccccc4)nnc3s2)c1 | 969
CN(C(=O)C1CCCN(c2ncnc3c2nc2n3CCCCC2)C1)c1cccc(Cl)c1 (stereo not given) | 851
O=C(Cc1csc(NC(=O)c2ccsc2)n1)NCc1nc2ccccc2[nH]1 | 573
O=C(Cn1cnc2c(sc3nc(-c4ccccc4)ccc32)c1=O)Nc1ccc(Cl)cc1F | 1110
CNC(=O)C1CCCN(c2nc3ncn(CC(=O)Nc4cc(C)ccc4OC)c(=O)c3s2)C1 (stereo not given) | 678
Cc1cc([N+](=O)[O-])ccc1NC(=O)C(=O)NCc1cccs1 | 864
CCOc1ccccc1-c1noc(Cn2c(=O)n(Cc3ccc(C)cc3)c(=O)c3sccc32)n1 | 1170
CCN(CC)C(=O)c1ccc2c(c1)ncn2CCNC(=O)Nc1ccc(Br)cc1 | 644
Cc1c(C(=O)NCCCN2CCCCC2)oc2ccc3c(c12)C(O)CC(C)(C)O3 (stereo not given) | 631
CCC(=O)N1CCOc2ccc(N3CCOCC3)cc2C1 | 630
Cc1nn(C(=O)CC(C)C)c(C)c1S(=O)(=O)N1CCCC1 | 586
CC(C)N1CCN(C(=O)c2cc(-c3ccccc3)n[nH]2)CC1 | 589
O=C(N[C@H]1C[C@@H]2C[C@H]1CN2C(=O)NCCc1ccccc1)c1cccs1 | 716
CCCn1nc(CNC(=O)c2ccoc2)c2ccccc21 | 789
CCC(C(=O)N1CCN(c2ncccn2)CC1)n1c2ccccc2c2cnn(C)c(=O)c21 (stereo not given) | 875
Cc1cc2c(cc1NC(=O)c1ccco1)n(C)c(=O)c(=O)n2C | 614
CC1=C(c2ccccc2)S(=O)(=O)N=C1N1CCCN(C(=O)c2ccoc2)CC1 | 728
O=C(O)c1cn(-c2cccc(F)c2)nn1 | 652
CCC(C)NC(=O)C1CCN(c2cnc(N3CCCCC3)nc2)CC1 (stereo not given) | 686

SMILES | RP-LC retention time [s]
O=C(Nc1nccn(-c2ccc3c(c2)CCC3)c1=O)c1ccc(Cl)cc1 | 962
COCc1cc(=O)n(CC(=O)Nc2cccc(OC)c2)c(N2CCOCC2)n1 | 779
NC(=O)c1cc(-c2ccc(F)cc2)n[nH]1 | 645
CCOCCCNC(=O)C1CCN(c2cc(Oc3cccc(C)c3C)ncn2)CC1 | 819
Cc1ccccc1-c1noc(C2CCCN2S(=O)(=O)c2cccc(Cl)c2C)n1 (stereo not given) | 1280
CC(C)CNC(=O)C1CCCN(c2ccnc(-c3ccc(F)cc3)n2)C1 (stereo not given) | 659
COCc1nc(NCc2ccc3c(c2)OCO3)ncc1C(=O)O | 673
CSc1ccc(NC(=O)N2CCC(c3nc(C(=O)N4CCCCC4)c(C)o3)CC2)cc1 | 840
CCC(C)NC(=O)C1CCN(S(=O)(=O)c2c(C)nn(-c3ccc(C)cc3)c2C)CC1 (stereo not given) | 683
CCOC(=O)c1noc2nc(C)nc(NC3CCN(Cc4ccccc4)CC3)c12 | 648
O=C(Nc1ncc(Cc2cccc3ccccc23)s1)C1CC1 | 878
CC1CCc2[nH]nc(C(=O)NCC3CCCO3)c2C1 (stereo not given) | 702
Cc1cc2c3ccccc3ncn2n1 | 855
CCOC(=O)c1noc2nc(C)nc(Nc3ccccc3)c12 | 1010
Cc1ccc(-c2csc(Cc3nc(-c4cccc(F)c4)no3)n2)cc1 | 1270
Cc1ccc(S(=O)(=O)c2cnc(N3CCN(c4cccc(Cl)c4)CC3)nc2N)cc1 | 1190
Cc1nc(Nc2ccc(F)cn2)sc1C(=O)NC(C)c1ccc(F)cc1 (stereo not given) | 887
CCCOc1nc2ccccc2nc1N1CCCC(C(=O)NCC2CCCO2)C1 (stereo not given) | 1010
CC(C)Cc1nc(C2CN(C(=O)c3cnccn3)CC23CCCC3)no1 (stereo not given) | 618
CC1(C)CC(=O)c2cn(-c3ccc(F)cc3)c(=O)c(C(=O)N3CCC(N4CCCCC4)CC3)c2C1 | 634
Nc1c(C(=O)NCC2CCCO2)c2nc3ccccc3nc2n1C1CCCC1 (stereo not given) | 1070
Cc1ccc(C)c(NC(=O)Cn2nc(N3CCCC(C)C3)c3ccccc3c2=O)c1 (stereo not given) | 1160
COC(=O)c1c(NCc2ccccc2Br)c2cc(F)ccc2[nH]c1=O | 787

SMILES | RP-LC retention time [s]
COc1cc(OC)c(NS(=O)(=O)c2cc(-c3cc(C(F)(F)F)[nH]n3)sc2C)cc1Cl | 1020
Cc1nnc(NC(=O)CCc2c(C)[nH]c(=O)[nH]c2=O)s1 | 547
COCCCNC(=O)C1c2ccccc2C(=O)N1Cc1ccccc1F (stereo not given) | 708
CC(=O)c1ccc(OC(=O)c2cc3c(C)nn(-c4cccc(F)c4)c3s2)cc1 | 779
CC1CCC(NC(=O)C2CCN(C(=O)c3ncn4c3COC(c3ccc(Cl)cc3)C4)CC2)CC1 (stereo not given) | 880
CCCNc1cc(N2CCC(CCC(=O)Nc3ccc4c(c3)OCCO4)CC2)ncn1 | 682
O=C(CN1C(=O)COc2ccccc21)N1CCSCC1 | 712
CN1C(=O)c2cc(C(=O)NCc3ccccc3F)nn2CC1(C)C(=O)NCc1ccccc1 (stereo not given) | 697
Cc1ccc(C2Cn3nnc(C(=O)NC4CCCCC4)c3CO2)cc1 (stereo not given) | 1050
O=c1c2oc3ccccc3c2ncn1Cc1nc(-c2cccc(C(F)(F)F)c2)no1 | 1040
CCc1ccc(CN2CCn3c(nn(C)c3=O)C2)cc1 | 689
O=C(NCCc1csc(-c2cccs2)n1)C1CCN(C(=O)c2cccc(Cl)c2)CC1 | 839
CC(C(=O)NCCc1ccccc1)n1cnc2nc(N3CCCCC3)ncc2c1=O (stereo not given) | 810
CC1CCC(NS(=O)(=O)c2ccc3c(c2)c(=O)n(CC(=O)N2CCCC2)c(=O)n3C)CC1 (stereo not given) | 834
COc1ccc(C2C(C(=O)NC(C)C)c3ccccc3C(=O)N2C)cc1 (stereo not given) | 730
C=CCn1c(C)c(CC(=O)NCC(C)C)c(=O)n2nc(-c3ccccc3)nc12 | 779
Cc1cc(S(=O)(=O)N2CCC(n3c(-c4ccoc4)nc4cccnc43)C2)ccc1F (stereo not given) | 827
Cn1nccc1C(=O)N1CCC(c2nncn2Cc2ccccc2)CC1 | 624
CCn1cc(CN2CCCC(Cn3cc(COC)nn3)C2)c2cc(OC)ccc21 (stereo not given) | 637
CCOC(=O)c1[nH]c(C)c(C(=O)C(C)N(CC(C)C)C(=O)c2ccc(C)cc2)c1C (stereo not given) | 1030
O=C(NCCN1CCOCC1)C1CCN(c2ccc3nnc(-c4ccccc4Cl)n3n2)CC1 | 596
O=C(CSCc1ccccc1)Nc1ccc(CC(=O)NC2CC2)cc1 | 705
Clc1ccc(-c2csc(Cc3nc(-c4ccc5c(c4)OCO5)no3)n2)cc1 | 1200

SMILES | RP-LC retention time [s]
CC(C)c1ccc(Oc2nccn3c(=O)n(CC(=O)Nc4ccc(Br)cc4)nc23)cc1 | 1090
COc1cccc(-c2noc(N3CCN(c4ccccn4)CC3)n2)c1OC | 645
Cn1c(=O)c2cc(C(=O)Nc3cccc(Cl)c3)cnc2n(-c2ccccc2)c1=O | 980
CCn1ccc2c(cc(C(=O)Nc3ccc(Br)cc3C)n2C)c1=O | 832
Cc1cc(C)c(-c2csc(NC(=O)c3ccc(S(=O)(=O)N4CCOCC4)cc3)n2)c(C)c1 | 1110
CCOc1ccccc1OCc1nn2c(COc3ccc(F)cc3)nnc2s1 | 1000
Cc1ccc(CCCN2CCCC(COc3ccccc3C(=O)N3CCCCC3)C2)o1 (stereo not given) | 748
CN1C(=O)c2ccccc2Oc2ccc(C(=O)NCc3ccc(F)cc3)cc21 | 868
COc1ccc(-c2cc(NS(=O)(=O)c3cnc[nH]3)n(C3CCS(=O)(=O)C3)n2)cc1 (stereo not given) | 649
Cc1ccc2nc(C(=O)NCc3cccs3)cn2c1 | 646
Fc1cccc(Cn2cc(-c3noc(C4CCCC4)n3)nn2)c1 | 1010
Cn1c(C2CCN(C(=O)Nc3ccc(F)cc3)CC2)cc(=O)n2nccc12 | 615
Cn1cc(-c2noc(-c3cc(F)ccc3Cl)n2)ccc1=O | 894
CCCCn1cnc2c(-c3ccccc3)cn(CC(=O)NC(C)CC)c2c1=O (stereo not given) | 985
Cc1nc(N2CCOCC2)c2c(C(=O)Nc3ccc(C)c(C)c3)c(C)oc2n1 | 882
Cc1nc(OCC(=O)NCc2ccccc2)c2ccccc2n1 | 621
COc1ccc(N2CC(CNC(=O)C3CCCC3)OC2=O)cc1OC (stereo not given) | 649
Cc1ccc(C(=O)Nc2ccc(N3CCN(C4CCCC4)C3=O)nc2)cc1N1CCCC1=O | 686
O=C(Cc1noc2ccccc12)NCCOc1ccc2nnc(-c3ccc(F)cc3)n2n1 | 679
COc1ccc(S(=O)(=O)N2CCc3c(c(-c4nnc(-c5ccccc5F)o4)nn3C)C2)cc1 | 882
CCOC(=O)c1ccccc1NC(=O)Cn1nc2cc(-c3ccccn3)nc(C)n2c1=O | 875
